PubChem BioAssay (NCI)
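Test compounds were applied to cells in 96-well plates for 48 hours at 5 doses. GI50: concentration for 50% inhibition of growth. Definition used: TGI = concentration required for complete inhibition of growth.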

Assays:
Assay in all cases: DTP human tumour cell line panel, 48 h
[1] = test system: A549 NSCLC
[2] = test system: BT-549 breast
[3] = test system: HCC-2998 colon
[4] = test system: HOP-92 NSCLC
[5] = test system: IGROV1 ovarian
[6] = test system: KM12 colon
[7] = test system: OVCAR-5 ovarian
[8] = test system: OVCAR-8 ovarian
[9] = test system: RPMI-8226 leukemia
[10] = test system: U251 CNS

Row | Compound | GI50 [1] [µM] | TGI [1] [µM] | GI50 [2] [µM] | TGI [2] [µM] | GI50 [3] [µM] | TGI [3] [µM] | GI50 [4] [µM] | TGI [4] [µM] | GI50 [5] [µM] | TGI [5] [µM] | GI50 [6] [µM] | TGI [6] [µM] | GI50 [7] [µM] | TGI [7] [µM] | GI50 [8] [µM] | TGI [8] [µM] | GI50 [9] [µM] | TGI [9] [µM] | GI50 [10] [µM] | TGI [10] [µM]
1 | Cc1ccc2c(C3C(C#N)=C(N)Oc4cc5ccccc5cc43)cc(=O)oc2c1 (stereo not given) | 2.95 | > 100 | 3.67 | 64.3 | 3.91 | 58.6 | 19.7 | 84 | 0.983 | > 100 | 0.724 | > 100 | 3.76 | > 100 | 4.47 | > 100 | 3.23 | 30.2 | 2.28 | > 100
2 | CCN(Cc1ccc(F)cc1)c1ccc(CO)c(Br)c1 | 0.614 | 21.3 | 12.2 | 29 | 5.29 | 30.8 | 0.173 | 6.23 | 0.0402 | 0.202 | 23.4 | 63.1 | 0.0525 | 0.225 | 9.64 | 47.1 | 0.646 | 22.1 | 0.171 | 13
3 | CN(C)CCC(=O)C(=Cc1ccc(O)cc1)C(=O)CCN(C)C | > 100 | > 100 | > 100 | > 100 | > 100 | > 100 | 95.6 | > 100 | > 100 | > 100 | 41.9 | > 100 | > 100 | > 100 | > 100 | > 100 | 27.8 | > 100 | 61.5 | > 100
4 | CN1CC[C@@H](c2c(O)cc(O)c3c(=O)cc(-c4ccc(C(F)(F)F)cc4Cl)oc23)[C@@H]1CO | 23.9 | 56.2 | 12.2 | 25.9 | 13.7 | 33.1 | 13 | 40.3 | 11.8 | 38.6 | 13.7 | 30.4 | 14.1 | 59.3 | 18.2 | 42 | 17.3 | 53.5 | 16.7 | 33.9
